Results from patent US10899631B2, “Ferrous modified selenium sol for inhibiting accumulation of cadmium and arsenic in rice and preparation method and application thereof” (priority 2018, dated 2021).
Like-named read-outs stand apart in the source and are kept apart here.

Assays:
[1] = test system: rice suspension cells; assay: Content of arsenic in rice suspension cells; format: cell-based, Oryza sativa L. Japonica; settings: for As content: 10 μM cadmium and 5 μM arsenic for 24 h, CK 7.12 ± 0.82; for As reduction ratio (inhibition rate of arsenic): compared with the blank control
Description: (§1) Method of culturing rice suspension cells (Oryza sativa L. Japonica): Selecting mature and plump seeds of Japanese rice Nipponbare, and disinfecting them with 70% alcohol by volume or 30% sodium hypochlorite by mass; evenly sowing the seeds with tweezers onto a plate containing a solid medium, and then placing the plate into an incubator to culture in the dark at a culture temperature of 25° C.; after a period of time, removing hypocotyls from the seeds with tweezers, and culturing the hypocotyls in another solid medium to obtain callus; crushing 10 g of the callus, adding it to a triangular flask containing a liquid medium (50 mL), and culturing in a shaker at 28° C. for about one month to obtain rice suspension cells.
(§2) The basic components of the above solid medium and liquid medium are consistent, both being an MS medium. The solid medium was prepared by adding agar to the liquid medium (adding […] of the liquid medium, and then heating, melting, cooling and solidifying to obtain the solid medium). The basic formula was as follows: […]
(§3) Ferrous sulfate, sodium selenite and the ferrous modified selenium sol prepared in Examples 1, 2 and 3 were added to a rice suspension cell system, respectively, so that in the final system the ferrous sulfate solution containing the iron element at a mass-volume ratio of 0.05% (T1), the sodium selenite solution containing the selenium element at a mass-volume ratio of 0.025% (T2), and the ferrous modified selenium sol prepared in Example 1 (T3) were diluted 50 times, the ferrous modified selenium sol prepared in Example 2 was diluted 150 times (T4), and the ferrous modified selenium sol prepared in Example 3 was diluted 100 times (T5). The rice suspension cells without any treatment were used as a control (CK). After 24 h of culture, cadmium and arsenic were added to the culture system, so that the final concentrations of cadmium and arsenic were 10 μM and 5 μM, respectively. With the temperature kept constant at 28° C. in a shaker, the rice cells of each treatment were continuously cultured for 24 h and then collected. RNA was extracted from the rice cells and reversely transcribed, and the expression levels of the genes OsNramp5, OsHMA3, OsLCT1, OsLsi1 and OsLsi2 were detected.
(§4) The rice cells obtained by the above respective treatments were collected and washed centrifugally with ultrapure water, and then the contents of cadmium and arsenic in the cells were measured.

[2] = test system: OsLsi1; assay: Expression level of OsLsi1 in rice suspension cells, real-time fluorescence quantitative PCR; format: cell-based, Oryza sativa L. Japonica; settings: 24 h with treatment, then 10 μM cadmium and 5 μM arsenic for 24 h, CK 4.74 ± 0.11
Description: as §1, §2
(§5) In order to study the effect of the ferrous modified selenium sol on the expression level of the cadmium transporter in rice suspension cells, the following treatments were performed on the rice suspension cells: […]

[3] = test system: rice; assay: Field test of foliar barriers: content of cadmium in rice; format: in vivo, rice variety Huang-Li-Zhan; settings: for content of cadmium in rice decreased by, compared with the control (CK) / content of cadmium in rice: sprayed once at tillering stage at 100 L/mu (T1, T4, T5); for content of cadmium in rice: control 0.308 mg/kg
Description: (§6) The surface soil (0-30 cm) of a rice field polluted by heavy metals located in Boluo Town, Huizhou City, Guangdong Province was collected and analyzed from April to July of 2016. […] The tested rice variety was Huang-Li-Zhan.
(§7) There were the following six treatments in the experiment: (1) Blank control (CK): An equal amount of clear water was sprayed. (2) Treatment 1 (T1): The silica sol foliar barrier (prepared in Example 3) was sprayed once on the leaves at the tillering stage of rice when the foliar barrier was diluted 50 times and sprayed at 100 L/mu. (3) Treatment 2 (T2): The selenium sol foliar barrier (prepared in Example 3) was sprayed twice on the leaves, the first at the tillering stage of rice when the foliar barrier was diluted 100 times and sprayed at 50 L/mu, the second at the heading stage of rice when the foliar barrier was diluted 100 times and sprayed at 150 L/mu. (4) Treatment 3 (T3): The selenium sol foliar barrier (prepared in Example 3) was sprayed three times on the leaves, the first at the tillering stage of rice when the foliar barrier was diluted 100 times and sprayed at 80 L/mu, the second at the heading stage of rice when the foliar barrier was diluted 100 times and sprayed at 120 L/mu, the third at the filling stage of rice when the foliar barrier was diluted 250 times and sprayed at 150 L/mu. (5) Treatment 4 (T4): The ferrous sulfate solution containing the iron element at a mass-volume ratio of 0.1% was sprayed on the leaves at the tillering stage of rice at 100 L/mu. (6) Treatment 5 (T5): The sodium selenite solution containing the selenium element at a mass-volume ratio of 0.05% was sprayed on the leaves at the tillering stage of rice at 100 L/mu.
(§8) It was selected that the above foliar preparations were sprayed at 4-6 pm on a sunny day; when sprayed, the atomized droplets were controlled to be smaller than 1000 microns, and sprayed uniformly on both sides of the rice leaves. Each treatment was repeated four times, randomly arranged. There were totally 36 test plots, each plot having an area of 5×6=30 m^2 to ensure independent drainage and irrigation.

[4] = test system: OsLCT1; assay: Expression level of OsLCT1 in rice suspension cells, real-time fluorescence quantitative PCR; format: cell-based, Oryza sativa L. Japonica; settings: 24 h with treatment, then 10 μM cadmium and 5 μM arsenic for 24 h, CK 4.62 ± 0.10
Description: as §1, §2, §5

[5] = test system: rice suspension cells; assay: Content of cadmium in rice suspension cells; format: cell-based, Oryza sativa L. Japonica; settings: for Cd Content: 10 μM cadmium and 5 μM arsenic for 24 h, CK 12.8 ± 0.9; for Cd reduction ratio (inhibition rate of cadmium): compared with the blank control
Description: as §1, §2, §3, §4

[6] = test system: OsHMA3; assay: Expression level of OsHMA3 in rice suspension cells, real-time fluorescence quantitative PCR; format: cell-based, Oryza sativa L. Japonica; settings: 24 h with treatment, then 10 μM cadmium and 5 μM arsenic for 24 h, CK 1.47 ± 0.07
Description: as §1, §2, §5

[7] = test system: rice; assay: Field test of foliar barriers: content of inorganic arsenic in rice; format: in vivo, rice variety Huang-Li-Zhan; settings: sprayed once at tillering stage at 100 L/mu (T1, T4, T5); for content of inorganic arsenic in rice: control 0.280 mg/kg
Description: as §6, §7, §8

[8] = test system: rice; format: in vivo, rice variety Huang-Li-Zhan
Description: as §6, §7, §8

[9] = test system: OsNramp5; assay: Expression level of OsNramp5 in rice suspension cells, real-time fluorescence quantitative PCR; format: cell-based, Oryza sativa L. Japonica; settings: 24 h with treatment, then 10 μM cadmium and 5 μM arsenic for 24 h, CK 4.84 ± 0.15
Description: as §1, §2, §5

[10] = test system: OsLsi2; assay: Expression level of OsLsi2 in rice suspension cells, real-time fluorescence quantitative PCR; format: cell-based, Oryza sativa L. Japonica; settings: 24 h with treatment, then 10 μM cadmium and 5 μM arsenic for 24 h, CK 4.91 ± 0.21
Description: as §1, §2, §5

O=[Se](O)O [sodium selenite]
As content [1]: 4.96 ± 0.53 µg/g
As reduction ratio (inhibition rate of arsenic) [1]: 30.3%
OsLsi1 expression [2]: 3.11 ± 0.17
content of cadmium in rice decreased by, compared with the control (CK) [3]: 10.1%
content of cadmium in rice [3]: 0.276 mg/kg
OsLCT1 expression [4]: 4.42 ± 0.14
Cd Content [5]: 9.1 ± 1.2 µg/g
Cd reduction ratio (inhibition rate of cadmium) [5]: 28.9%
OsHMA3 expression [6]: 2.15 ± 0.14
content of inorganic arsenic in rice decreased by, compared with the control (CK) [7]: 16.8%
content of inorganic arsenic in rice [7]: 0.232 mg/kg
yield of rice decreased by ([8]; field, T5: sprayed once at tillering stage at 100 L/mu, 0.05% Se, compared with CK): 3.8%
Plot average yield ([8]; field, sprayed once at tillering stage at 100 L/mu (T1, T4, T5), CK 28.05): 26.95c kg
Dry production per mu ([8]; field, sprayed once at tillering stage at 100 L/mu (T1, T4, T5), CK 386): 371 kg
Wet production per mu ([8]; field, sprayed once at tillering stage at 100 L/mu (T1, T4, T5), CK 623): 599 kg
Yield increase ratio ([8]; field, sprayed once at tillering stage at 100 L/mu (T1, T4, T5), compared with CK): −3.8%
Plot yield II ([8]; field, sprayed once at tillering stage at 100 L/mu (T1, T4, T5), plot II, CK 30.15): 27.15 kg
Plot yield III ([8]; field, sprayed once at tillering stage at 100 L/mu (T1, T4, T5), plot III, CK 28.95): 29.12 kg
Plot yield IV ([8]; field, sprayed once at tillering stage at 100 L/mu (T1, T4, T5), plot IV, CK 24.3): 26.13 kg
Plot yield I ([8]; field, sprayed once on leaves at tillering stage at 100 L/mu (T1: sol diluted 50 times; T4: ferrous sulfate 0.1% Fe; T5: sodium selenite 0.05% Se), plot I, 30 m^2, CK 28.65): 25.41 kg
OsNramp5 expression [9]: 3.85 ± 0.21
OsLsi2 expression [10]: 3.07 ± 0.11

O=S(=O)([O-])[O-].[Fe+2] [ferrous sulfate]
As content [1]: 6.89 ± 0.71 µg/g
As reduction ratio (inhibition rate of arsenic) [1]: 3.2%
OsLsi1 expression [2]: 4.15 ± 0.16
cadmium and inorganic arsenic content of the treated rice against the food hygiene standard ([3]; sol in regimens T1, T2 and T3, ferrous sulfate T4, sodium selenite T5): still exceeded the food hygiene standard
content of cadmium in rice decreased by, compared with the control (CK) [3]: 18.8%
content of cadmium in rice [3]: 0.250 mg/kg
OsLCT1 expression [4]: 3.82 ± 0.11
Cd Content [5]: 8.3 ± 0.6 µg/g
Cd reduction ratio (inhibition rate of cadmium) [5]: 35.2%
OsHMA3 expression [6]: 2.53 ± 0.12
content of inorganic arsenic in rice decreased by, compared with the control (CK) [7]: 18.7%
content of inorganic arsenic in rice [7]: 0.255 mg/kg
Dry production per mu ([8]; in vivo): 410 kg
Plot average yield ([8]; in vivo): 30.04abc kg
Plot yield I ([8]; in vivo): 29.4 kg
Plot yield II ([8]; in vivo): 30.75 kg
Plot yield III ([8]; in vivo): 30.3 kg
Wet production per mu ([8]; in vivo): 668 kg
Yield increase ratio ([8]; in vivo): 6.4%
Plot yield IV ([8]; in vivo, iv): 29.7 kg
OsNramp5 expression [9]: 3.15 ± 0.16
OsLsi2 expression [10]: 4.78 ± 0.27
